Experimental data published in patent US20250281462A1, “THERAPEUTICALLY EFFECTIVE ORAL ADMINISTRATION OF A 2 ARYLBENZIMIDAZOLE” (Tranquis Therapeutics, Inc., priority 2021, published 2025).
Read-outs that look alike come from different tables or passages of the source.

Test: Plasma concentrations of TQS-168 and TQS-621 after single oral dose 50 mg/kg in mice, three formulations
Format: in vivo
Details: male, C57BL/6, mouse, plasma, po, 50 mg/kg; for Cmax / AUC(0-t) / Tmax / AUC(0-inf) / half-life: mice plasma; for Cmax: read-out: Cmax; for Tmax: read-out: tmax; for concentration at 0.25 h / concentration at 0.5 h / concentration at 1 h / concentration at 2 h / concentration at 4 h / concentration at 8 h / concentration at 12 h: mice, read-out: Calculated Concentration in plasma
Method: In a second experiment, mice were administered 50 mg/kg TQS-168 by oral gavage. For Group 1, TQS-168 was prepared at a concentration of 5.0 mg/mL in a suspension with […] in PBS. For Group 2, TQS-168 was prepared at a concentration of 5.0 mg/mL as a solution in 10 polyethylene glycol (PEG) 400|30 Kleptose (Roquete)|60% water.
Plasma exposures for Group 1 mice (ng/mL) are presented in Table 2 and for Group 2 mice in Table 3.
C57BL/6 male mice were administered a single dose of TQS-168 at 50 mg/kg using one of three formulations: Group 1-5.0 mg/ml suspension in 0.5% methylcellulose in PBS; Group 2-5.0 mg/ml solution in PEG400 (Fluka) 10%|Kleptose (Roquette) 30%|sterile water 60%; Group 3-5.0 mg/ml suspension in Labrafil M 1944 CS (Gattefosse) 30%|Masine CC (Gattefosse) 5%|Miglyol 812N 10%|sterile water 55%.
Plasma concentrations of TQS-168 and TQS-621 were measured overtime.

[1] = TQS-168 50 mg/kg p.o., Group 1 (suspension, 0.5% methylcellulose in PBS), individual mouse
[2] = TQS-168 50 mg/kg p.o., Group 1 (suspension, 0.5% methylcellulose in PBS), mean
[3] = TQS-168 50 mg/kg p.o., Group 2 (solution, PEG400/Kleptose/water), individual mouse
[4] = TQS-168 50 mg/kg p.o., Group 2 (solution, PEG400/Kleptose/water), mean
[5] = TQS-168 50 mg/kg p.o., Group 3 (suspension, Labrafil/Masine/Miglyol/water), individual mouse
[6] = TQS-168 50 mg/kg p.o., Group 3 (suspension, Labrafil/Masine/Miglyol/water), mean
[7] = 50 mg/kg p.o., Group 1 (suspension, methylcellulose in PBS), individual mouse
[8] = 50 mg/kg p.o., Group 1 (suspension, methylcellulose in PBS), mean
[9] = 50 mg/kg p.o., Group 2 (solution, PEG 400/Kleptose/water), individual mouse
[10] = 50 mg/kg p.o., Group 2 (solution, PEG 400/Kleptose/water), mean

CC(C)(C)c1ccc(-c2nc3ccccc3[nH]2)cc1 [TQS-168, 2-(4-tert-butylphenyl)-1H-benzimidazole]
Cmax (50 mg/kg p.o., Group 1 (suspension)): 4.5 µM
Cmax (50 mg/kg p.o., Group 2 (solution)): 8.54 µM
Cmax (50 mg/kg p.o., Group 3 (suspension)): 2.4 µM
AUC(0-t) [1]: 5040 ng·h/mL
Cmax [1]: 1280 ng/mL
Tmax [1]: 1 h
AUC(0-inf) [2]: 8110 ng·h/mL
AUC(0-t) [2]: 5970 ng·h/mL
half-life [2]: 4.3 h
Cmax [2]: 1120 ng/mL
Tmax [2]: 0.833 h
AUC(0-inf) [3]: 11400 ng·h/mL
AUC(0-t) [3]: 10600 ng·h/mL
half-life [3]: 2.81 h
Cmax [3]: 1950 ng/mL
Tmax [3]: 0.5 h
AUC(0-inf) [4]: 11400 ng·h/mL
AUC(0-t) [4]: 10700 ng·h/mL
half-life [4]: 2.82 h
Cmax [4]: 2140 ng/mL
Tmax [4]: 0.833 h
AUC(0-inf) [5]: 4250 ng·h/mL
AUC(0-t) [5]: 4110 ng·h/mL
half-life [5]: 1.47 h
Cmax [5]: 611 ng/mL
AUC(0-inf) [6]: 4150 ng·h/mL
AUC(0-t) [6]: 3930 ng·h/mL
half-life [6]: 1.71 h
Cmax [6]: 611 ng/mL
Tmax [6]: 3.17 h
concentration at 0.25 h [7]: 586 ng/mL
concentration at 0.25 h [8]: 653 ng/mL
concentration at 0.5 h [8]: 949 ng/mL
concentration at 1 h [7]: 1280 ng/mL
concentration at 1 h [8]: 1100 ng/mL
concentration at 2 h [8]: 776 ng/mL
concentration at 4 h [7]: 435 ng/mL
concentration at 4 h [8]: 435 ng/mL
concentration at 8 h [8]: 446 ng/mL
concentration at 12 h [8]: 187 ng/mL
concentration at 0.25 h [9]: 656 ng/mL
concentration at 0.25 h [10]: 900 ng/mL
concentration at 0.5 h [9]: 1950 ng/mL
concentration at 0.5 h [10]: 1960 ng/mL
concentration at 1 h [9]: 1520 ng/mL
concentration at 1 h [10]: 1990 ng/mL
concentration at 2 h [9]: 1810 ng/mL
concentration at 2 h [10]: 1760 ng/mL
concentration at 4 h [9]: 1330 ng/mL
concentration at 4 h [10]: 1200 ng/mL
concentration at 8 h [9]: 374 ng/mL
concentration at 8 h [10]: 427 ng/mL
concentration at 12 h [9]: 185 ng/mL
concentration at 12 h [10]: 161 ng/mL
